# Laboratory results published in patent US8853228B2, “Heterocyclic analogs of propargyl-linked inhibitors of dihydrofolate reductase” (University of Connecticut, priority 2011, dated 2014).
# Read-outs that look alike come from different tables or passages of the source.
# Columns and labels:
# [1] = target: CgDHFR (Candida glabrata (strain ATCC 2001 / BCRC 20586 / JCM 3761 / NBRC 0622 / NRRL Y-65 / CBS 138) (Yeast) (Nakaseomyces glabratus), UniProt Q6FPH0); experiment: biochemical; settings: for Selectivity: Table 7, hDHFR vs CgDHFR
# CgDHFR, sequence (Q6FPH0 1-217): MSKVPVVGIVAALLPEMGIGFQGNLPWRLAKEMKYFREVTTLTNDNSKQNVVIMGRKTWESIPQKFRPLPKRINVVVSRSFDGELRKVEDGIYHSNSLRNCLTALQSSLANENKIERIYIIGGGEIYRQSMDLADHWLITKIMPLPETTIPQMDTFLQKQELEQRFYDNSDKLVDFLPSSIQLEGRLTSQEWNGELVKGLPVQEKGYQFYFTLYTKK
# Source text: CgDHFR: The gene coding CgDHFR was amplified by PCR from C. glabrata genomic DNA obtained from ATCC. The gene was inserted in a pET41 vector that includes a C-terminal histidine tag for nickel affinity chromatography. E. coli cells were transformed and the resulting plasmid was verified by sequencing. The protein was expressed in E. coli BL21(DE3) cells with isopropyl β-D-thiogalactoside induction. Following growth, the cells were lysed with BugBuster (Novagen) and centrifuged; the supernatant was loaded on a Ni-NTA column. The column was washed with 20 mM Tris (pH 8.0)/0.4 M NaCl and the protein was eluted using a gradient of 20 mM Tris (pH 8.0), 0.3 M NaCl, 20% glycerol, 0.1 mM EDTA, 2 mM DTT, 250 mM imidazole. Fractions containing CgDHFR were identified by SDS-PAGE, combined and desalted using a PD-10 column with a buffer containing 20 mM Tris pH 8.0, 20% glycerol, 0.1 mM EDTA and 2 mM DTT. The protein was concentrated to 13 mg/mL.
# (§1) Enzyme and inhibitor were allowed to incubate for 5 min before adding dihydrofolate to initiate the reaction. Enzyme assays were performed at least four times. IC50 values and their standard deviations were calculated in the presence of varying concentrations of inhibitor near the IC50 concentration.
# [2] = tested on: C. glabrata; experiment: Antifungal assay (MIC, Alamar Blue); assay type: cell-based, Candida glabrata; settings: for MIC: Nakaseomyces glabratus; for antifungal properties against C. glabrata: result in words
# Protocol: Antifungal assays were performed using C. glabrata as a suspension in 50% glycerol at −78° C. For susceptibility testing, a streak of stock culture was made on SDA agar and grown at 30° C. for 48 h. One pure colony of the test organism was recovered from the plate, suspended in appropriate media and grown in a 5 mL shake flask culture. A sample of the shake flask culture was diluted to 1×10^5 cells/mL in media and added to 96-well test plates (100 μL per well) containing test compounds dispensed in DMSO (1 μL). Amphotericin and ketoconazole were used as controls. After an incubation period determined from the strain specific doubling time, Alamar Blue (10 μL) was added, allowed to incubate; each well was scored for dye reduction.
# Several representative compounds were also evaluated in thymidine-depleted media. It has been shown that high levels of thymidine interfere with accurate susceptibility testing of antifolates. To compensate for this, antifolates are frequently evaluated in a controlled minimal media with a low thymidine concentration. […] In addition, the compounds were also evaluated for mammalian cell toxicity using MCF-10 and HepG2 cell lines. Cellular selectivity is reported as the IC50 value for the MCF-10 human cell line divided by the MIC value (μg/mL) (Table 8).
# [3] = target: hDHFR (Homo sapiens (Human), UniProt P00374); experiment: hDHFR enzyme inhibition assay; assay type: biochemical
# hDHFR, sequence (P00374 whole entry): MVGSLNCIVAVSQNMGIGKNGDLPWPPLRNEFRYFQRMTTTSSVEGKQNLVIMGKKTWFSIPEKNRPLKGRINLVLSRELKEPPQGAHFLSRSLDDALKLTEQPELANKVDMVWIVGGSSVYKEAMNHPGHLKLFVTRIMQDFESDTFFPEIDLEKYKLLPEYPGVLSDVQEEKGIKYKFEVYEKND
# Protocol: hDHFR: The gene for hDHFR was amplified using PCR from cDNA obtained from ATCC. The gene was inserted in a pET41 vector with a C-terminal histidine tag for affinity chromatography. The resulting construct was verified by sequencing. The hDHFR protein was expressed in E. coli and purified using a nickel affinity column.
# as §1
# (§2) Enzyme inhibition assays were performed by monitoring the rate of NADPH oxidation by the DHFR enzyme at an absorbance of 340 nm. Assays were performed in the presence of saturating concentrations of NADPH and initiated with dihydrofolate. All assays were completed at 25° C. in a buffer containing 20 mM TES pH 7.0, 50 mM KCl, 10 mM 2-mercaptoethanol, 0.5 mM EDTA and 1 mg/mL BSA. Inhibition was measured at least three times with inhibitor concentrations near the IC50 value and the average IC50 value is reported with a standard deviation.
# [4] = Measured solubility; assay type: physicochemical; settings: in 200 mcg/mL HPMC and 0.2% DMSO
# [5] = target: ChDHFR-TS (Cryptosporidium hominis, UniProt Q27552); experiment: ChDHFR enzyme inhibition assay; assay type: biochemical
# ChDHFR-TS, sequence (Q27552 1-521): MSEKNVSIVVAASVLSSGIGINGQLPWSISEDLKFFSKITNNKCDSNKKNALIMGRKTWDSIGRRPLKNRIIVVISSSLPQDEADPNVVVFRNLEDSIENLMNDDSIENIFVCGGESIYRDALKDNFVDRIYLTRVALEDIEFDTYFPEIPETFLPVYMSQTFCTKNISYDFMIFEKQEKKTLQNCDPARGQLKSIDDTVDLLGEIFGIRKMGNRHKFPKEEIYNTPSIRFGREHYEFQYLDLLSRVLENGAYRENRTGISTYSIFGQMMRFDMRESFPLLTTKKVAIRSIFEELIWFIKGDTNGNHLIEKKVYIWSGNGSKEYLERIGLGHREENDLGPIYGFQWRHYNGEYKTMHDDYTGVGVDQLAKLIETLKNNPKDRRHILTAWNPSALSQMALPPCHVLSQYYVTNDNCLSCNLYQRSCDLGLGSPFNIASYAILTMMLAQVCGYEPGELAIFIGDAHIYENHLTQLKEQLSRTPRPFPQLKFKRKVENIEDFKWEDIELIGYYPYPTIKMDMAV
# Protocol: as §1
# Compounds were evaluated in spectrophotometric enzyme assays using ChDHFR-TS and hDHFR. Inhibition constants (IC50) were measured (see Table 4). […] The compound abbreviations in Table 4 refer to the following compounds: […]
# [6] = target: TgDHFR (Toxoplasma gondii, UniProt Q07422, DEL43-70); experiment: TgDHFR enzyme inhibition assay; assay type: biochemical
# TgDHFR, sequence (Q07422 71-250, added parts left off, stated change not applied): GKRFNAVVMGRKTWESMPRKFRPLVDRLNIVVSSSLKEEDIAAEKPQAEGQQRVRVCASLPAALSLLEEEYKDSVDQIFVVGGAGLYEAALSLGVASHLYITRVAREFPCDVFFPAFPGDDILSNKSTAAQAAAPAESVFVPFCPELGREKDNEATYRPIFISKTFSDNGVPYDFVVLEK
# Protocol: These residues were removed, leaving a five residue loop region characteristic of several other species of DHFR.
# as §1
# [7] = tested on: Streptococcus pyogenes; experiment: Antibacterial MIC, broth microdilution with Alamar Blue; assay type: cell-based
# Protocol: (§3) For susceptibility testing, 10 μL of glycerol stock was suspended in a 10 mL shake flask culture of chemically defined Isosensitest broth (Oxoid) supplemented with 2% w/v glucose. A sample of the shake flask culture was diluted to 1×10^6 cells/mL in media and added to 96-well test plates (100 μL per well) containing test compounds dispensed in DMSO (2 μL). After an incubation period (30° C.) determined from the strain specific doubling time, a 0.03% w/v aqueous solution of resazurin (10 μL) was added and the plates were allowed to incubate; each well was then scored for dye reduction.
# [8] = target: S. pyogenes DHFR (Streptococcus pyogenes, UniProt Q9A091); experiment: S. pyogenes DHFR enzyme inhibition assay; assay type: biochemical
# S. pyogenes DHFR, sequence (Q9A091 1-165): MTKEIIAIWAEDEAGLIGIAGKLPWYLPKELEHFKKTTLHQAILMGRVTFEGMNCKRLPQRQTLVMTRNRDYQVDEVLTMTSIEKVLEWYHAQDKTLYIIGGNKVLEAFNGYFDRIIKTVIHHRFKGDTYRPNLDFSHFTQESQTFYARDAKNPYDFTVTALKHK
# Protocol: as §2
# [9] = tested on: HepG2 cells; experiment: Mammalian cell toxicity, HepG2; assay type: cell-based; settings: cytotoxicity, Table 6
# Protocol: (§4) Adherent cell lines were maintained in Eagle's Minimal Essential Media (Sigma-Aldrich, St. Louis, Mo., USA) with 2 mM glutamine and Earle's Balanced Salt Solution (HyClone, Logan, Utah, USA) adjusted to contain 1.5 g/L sodium bicarbonate, 0.1 mM non-essential amino acids, 1 mM sodium pyruvate and 10% fetal calf serum. Fetal calf serum used in these assays was lot matched throughout. […] Toxicity assays were conducted between passages 10-20. Target compound toxicity was measured by incubating the test compound with the cells for 4 h, washing the cells and finally treating the cells with Alamar Blue. After 12-24 h, the fluorescence of the reduced dye was measured. Fluorescence intensity as a function of test compound concentration was fit to the Fermi equation, using non-linear least squares regression analysis, to estimate IC50 values.
# [10] = tested on: S. aureus 13709 (MRSA); experiment: Antibacterial MIC, broth microdilution with Alamar Blue; assay type: cell-based, Staphylococcus aureus
# Protocol: as §3
# [11] = target: S. aureus DHFR (Staphylococcus aureus, UniProt P0A017); assay type: biochemical
# Protocol: as §2
# [12] = tested on: MCF-10 cells; experiment: Mammalian cell toxicity, MCF-10; assay type: cell-based, human; settings: cytotoxicity
# Protocol: as §4
# [13] = tested on: mammalian cell lines; settings: result in words
# [14] = Table 7, read-out: IC50 (CgDHFR)
# [15] = Table 7, read-out: IC50 (hDHFR)
# [16] = C. glabrata, Inact: not active at 2 mM (~600 μg/mL), read-out: Antifungal activity MIC
# [17] = Table 4, read-out: IC50 (ChDHFR)
# [18] = average of at least three measurements
smiles,measurement,setting,value
CCc1nc(N)nc(N)c1C#CC(C)c1cc(OC)cc(N2CCOCC2)c1 (stereo not drawn) [Compound 153],Selectivity,[1],11 ± 1
same,IC50,[1]; [14],22 ± 2 nM
same,MIC (Cg),"[2]; C. glabrata, YM media",12 µg/mL
same,IC50,[3]; [15],250 ± 4 nM
same,Solubility,[4],80 µg/mL
"COc1cc(CC#Cc2c(C)nc(N)nc2N)cc(OC)c1OC [Compound 5, 6-methyl-5-[3-(3,4,5-trimethoxyphenyl)prop-1-yn-1-yl]pyrimidine-2,4-diamine]",IC50,[5]; IC50 against ChDHFR,< 100000 nM
same,IC50,[1]; IC50 against CgDHFR,≤ 25 nM
same,IC50,"[1]; Table 3, read-out: CgDHFR IC50",17 nM
same,MIC,[2]; [16],20 µg/mL
same,antifungal properties against C. glabrata,[2],exhibited antifungal properties
same,IC50,"[3]; Table 3, read-out: hDHFR IC50",400 nM
same,IC50,[6],< 100000 nM
"COc1cc([C@@H](C)C#Cc2c(C)nc(N)nc2N)cc(OC)c1OC (racemic) [Compound X, 6-methyl-5-[3-(3,4,5-trimethoxyphenyl)but-1-yn-1-yl]pyrimidine-2,4-diamine]",IC50,"[5]; IC50 (ChDHFR), Table 4",169 ± 6 nM
same,IC50,[5]; IC50 against ChDHFR,< 100000 nM
same,IC50,[5]; read-out: IC50 against ChDHFR,38 nM
same,IC50,"[1]; CgDHFR IC50, Table 3",25 nM
same,IC50,[1]; IC50 against CgDHFR,≤ 25 nM
same,MIC,[2]; [16],21 µg/mL
same,antifungal properties against C. glabrata,[2],exhibited antifungal properties
same,IC50,[6]; read-out: IC50 against TgDHFR,< 100000 nM
COc1cc(C(C)C#Cc2c(C)nc(N)nc2N)cc(N2CCNCC2)c1 (stereo not drawn) [Compound 159],Selectivity,[1],1.9 ± 0.4
same,IC50,[1]; [14],143 ± 10 nM
same,MIC (Cg),"[2]; C. glabrata, YM media",Inact
same,IC50,[3]; [15],270 ± 46 nM
same,Solubility,[4],60 µg/mL
"COc1cc(CC#Cc2cnc(N)nc2N)cc(OC)c1OC [Compound 1, 5-[3-(3,4,5-trimethoxyphenyl)prop-1-yn-1-yl]pyrimidine-2,4-diamine]",IC50,[5]; IC50 against ChDHFR,< 100000 nM
same,IC50,"[1]; CgDHFR IC50, Table 3",33 nM
same,Antifungal activity MIC,"[2]; C. glabrata, Inact: not active at 2 mM (~600 μg/mL)",Inact*
same,IC50,[6],< 100000 nM
"COc1cc([C@H](C)C#Cc2c(C)nc(N)nc2N)cc(OC)c1OC [138(S), 2,4-Diamino-5-((S)-3-(3,4,5-trimethoxyphenyl)but-1-ynyl)-6-methylpyrimidine]",IC50,[5]; IC50 against ChDHFR,< 100000 nM
same,IC50,[6],< 100000 nM
"COc1cc(-c2ccccc2)cc(C(C)C#Cc2c(C)nc(N)nc2N)c1 (racemic) [Compound 139, 5-[3-(5-methoxy-biphenyl-3-yl)but-1-yn-1-yl]-6-methylpyrimidine-2,4-diamine]",IC50,[5]; [17],1.8 nM
same,MIC,"[2]; C. glabrata, YM media, read-out: MIC (Cg)",11 µg/mL
same,Solubility,"[4]; aqueous with cosolvent or surfactant or cyclodextrin, kinetic from dmso stock, read-out: Solubility",20 µg/mL
COc1cc(C(C)C#Cc2c(C)nc(N)nc2N)cc(N2CCOCC2)c1 (stereo not drawn) [Compound 152],Selectivity S. pyogenes,[7]; IC50 (MCF10)/MIC (pathogen),"19,250"
same,MIC S. pyogenes,[7]; Table 6,0.024 µg/mL
same,Selectivity,[1],20 ± 4
same,IC50,[1]; [14],20 ± 3 nM
same,Selectivity (h/Sp),[8]; IC50 (human)/IC50 (pathogen),15
same,IC50,[8]; [18],26 ± 4 nM
same,IC50,[9],494000 nM
same,MIC (Cg),"[2]; C. glabrata, YM media",12 µg/mL
same,Selectivity Index,[2]; IC50 (MCF-10)/MIC (C. glabrata),330
same,MIC C. glabrata,[2]; IsoSensitest media supplemented with 2% glucose (thymidine-depleted),1.4 µg/mL
same,Selectivity MRSA,[10]; IC50 (MCF10)/MIC (pathogen),159
same,MIC MRSA,[10]; Table 6,2.9 µg/mL
same,Selectivity (h/Sa),[11]; IC50 (human)/IC50 (pathogen),14
same,IC50,[11]; [18],29 ± 2 nM
same,IC50,"[3]; Table 5, average of at least three measurements, read-out: IC50 human",400 ± 40 nM
same,IC50,[3]; [15],400 ± 40 nM
same,IC50,[12]; Table 6,462000 nM
same,IC50,[12]; Table 8,462000 nM
same,Solubility,[4],80 µg/mL
"COc1cc(-c2c(C(C)C)cccc2C(C)C)ccc1C(C)C#Cc1c(C)nc(N)nc1N (stereo not drawn) [Compound F26I, 5-[3-(3-methoxy-2′6′-diisopropylbiphenyl-4-yl)but-1-yn-1-yl]-6-methylpyrimidine-2,4-diamine]",Selectivity Ratio (IC50 ChDHFR/IC50 hDHFR),[5]; Table 4,262
same,IC50,[5]; [17],16 nM
same,IC50,"[3]; Table 4, read-out: IC50 (hDHFR)",4200 ± 0.1 nM
same,mammalian cell toxicity,[13],display mammalian cell toxcity
